The first test concerns Aβ40 in conditioned medium of cells stably expressing Amyloid Precursor Protein (APP). Description: BACE cell-based assay: Aβ40 in conditioned medium by sandwich ELISA. To be noted: cell based assay data of Table 4; unit inferred; read-out: Cell Assay. As to the method: The cell-based assay measures inhibition or reduction of Aβ40 in conditioned medium of test compound treated cells expressing amyloid precursor protein.
Cells stably expressing Amyloid Precursor Protein (APP) were plated at a density of 40K cells/well in 96 well plates (Costar). The cells were cultivated for 24 hours at 37° C. and 5% CO2 in DMEM supplemented with 10% FBS. The test compounds were then added to cells in 10-point dose response concentrations with the starting concentration being either 100 μM or 10 μM. The compounds were diluted from stock solutions in DMSO and the final DMSO concentration of the test compounds on cells was 0.1%. After 24 h of incubation with the test compounds the supernatant conditioned media was collected and the Aβ40 levels were determined using a sandwich ELISA. The ICso of the compound was calculated from the percent of control or percent inhibition of Aβ40 as a function of the concentration of the test compound.
The sandwich ELISA to detect Aβ40 was performed in 96 well microtiter plates, which were pre-treated with goat anti-rabbit IgG (Pierce). The capture and detecting antibody pair that were used to detect Aβ40 from cell supernatants were affinity purified pAb40 (Biosource) and biotinylated 6E10 (Signet Labs Inc.), respectively. The optimal concentration for the pAb40 antibody was 3 μg/ml in Superblock/TBS (Pierce) that was supplemented with 0.05% Tween 20 (Sigma).
Cellular supernatants were incubated with the capture antibody for 3 h at 4° C., followed by 3 wash steps in TBS-tween (0.05%). The detecting antibody incubation was for 2 h at 4° C., again followed by the wash steps as described previously. The final readout of the ELISA is Time-Resolved Fluorescence (counts per minute) using Delfia reagents Streptavidin-Europium and Enhancement solutions (Perkin Elmer) and the Victor 2 multilabel counter (Perkin Elmer).
On to `CC(=O)N[C@@H](Cc1cc(F)cc(F)c1)[C@H](O)CN[C@H]1CC2(CCC2)Oc2ccc(-c3cn(C)nn3)cc21` [compound 520], for which the IC50 was 2160 nM.

For the compound `CC(=O)N[C@@H](Cc1ccccc1)[C@H](O)CN[C@H]1CC2(CCC2)Oc2ccc(-c3cn(C)nn3)cc21` [compound 521], the IC50 is ≥ 10000 nM.

As to `CC(=O)N[C@@H](Cc1ccccc1)[C@H](O)CN[C@H]1CC2(CCC2)Oc2ncc(CC(C)C)cc21` [compound 523], the IC50 amounted to 4.09 nM. As to `CC(=O)N[C@@H](Cc1cccc(C#N)c1)[C@H](O)CN[C@H]1CC2(CCC2)Oc2ncc(CC(C)(C)F)cc21` [compound 524], the IC50 is 2.42 nM. `CC(=O)N[C@@H](Cc1cccc(F)c1)[C@H](O)CN[C@H]1CC2(CCC2)Oc2ncc(CC(C)(C)F)cc21` [compound 525]: the IC50 stood at 3.94 nM. On to `CC(=O)N[C@@H](Cc1cccc(C#N)c1)[C@H](O)CN[C@H]1CC(C)(C)Oc2ccc(Br)cc21` [compound 526], for which the IC50 turned out to be 116 nM.

Regarding `COCC(=O)N[C@@H](Cc1cccc(C#N)c1)[C@H](O)CN[C@H]1CC(C)(C)Oc2ccc(Br)cc21` [compound 527], the IC50 was found to be 120 nM. Same read-out and setting: the figure for `CN(C)CC(=O)N[C@@H](Cc1cccc(C#N)c1)[C@H](O)CN[C@H]1CC(C)(C)Oc2ccc(Br)cc21` [compound 528] is 1120 nM; for `CCc1cc(Br)c2c(c1)[C@@H](NC[C@@H](O)[C@H](Cc1cccc(C#N)c1)NC(C)=O)CC(C)(C)O2` [compound 529] it is 33.9 nM. The same measure, in the same setting: the figure for `CCc1cc2c(c(N3CCOCC3)c1)OC(C)(C)C[C@@H]2NC[C@@H](O)[C@H](Cc1cccc(C#N)c1)NC(C)=O` [compound 532] is 11.2 nM; for `CCc1cc(NC)c2c(c1)[C@@H](NC[C@@H](O)[C@H](Cc1ccccc1)NC(C)=O)CC(C)(C)O2` [compound 535] it is 924 nM. With `CC(=O)N[C@@H](Cc1ccc(F)cc1)[C@H](O)CN[C@H]1CC2(CCC2)Oc2c1cc(CC(C)(C)C)cc2N1CCOCC1` [compound 536], the IC50 is 2090 nM. As to `CC(=O)N[C@@H](Cc1ccccc1)[C@H](O)CN[C@H]1CC2(CCC2)Oc2c1cc(CC(C)(C)C)cc2N1CCOCC1` [compound 537], the IC50 was determined as 1970 nM. Turning to `CC(=O)N[C@@H](CC(C)C)[C@H](O)CN[C@H]1CC2(CCC2)Oc2ncc(CC(C)(C)C)cc21` [compound 538, N-((1S)-1-((1R)-2-(((4′S)-6′-(2,2-dimethylpropyl)-3′,4′-dihydrospiro[cyclobutane-1,2′-pyrano[2,3-b]pyridin]-4′-yl)amino)-1-hydroxyethyl)-3-methylbutyl)acetamide], the IC50 was 177 nM. Same read-out and setting: as for `C=C(C)C[C@H](NC(C)=O)[C@H](O)CN[C@H]1CC2(CCC2)Oc2ncc(CC(C)(C)C)cc21` [compound 539, N-((1S)-1-((1R)-2-(((4′S)-6′-(2,2-dimethylpropyl)-3′,4′-dihydrospiro[cyclobutane-1,2′-pyrano[2,3-b]pyridin]-4′-yl)amino)-1-hydroxyethyl)-3-methyl-3-buten-1-yl)acetamide], the figure is 50.3 nM; as for `CC(=O)N[C@@H](Cc1cccc(C#N)c1)[C@H](O)CN[C@H]1CC2(CCC2)Oc2ncc(CC(C)(C)C)cc21` [compound 540, N-((1S,2R)-1-((3-cyanophenyl)methyl)-3-(((4′S)-6′-(2,2-dimethylpropyl)-3′,4′-dihydrospiro[cyclobutane-1,2′-pyrano[2,3-b]pyridin]-4′-yl)amino)-2-hydroxypropyl)acetamide], 2.03 nM. On the same count and under the same terms, as for `CC(=O)N[C@@H](Cc1ccccc1)[C@H](O)CN[C@H]1CC2(CCC2)Cc2ncc(C)cc21` [compound 541, N-((1S,2R)-2-hydroxy-3-(((5′S)-3′-methyl-5′,8′-dihydro-6′H-spiro[cyclobutane-1,7′-quinolin]-5′-yl)amino)-1-(phenylmethyl)propyl)acetamide], the figure is 651 nM; as for `CC(=O)N[C@@H](Cc1cccc(C#N)c1)[C@H](O)CN[C@H]1CC2(CCC2)Cc2ncc(C)cc21` [compound 542, N-((1S,2R)-1-((3-cyanophenyl)methyl)-2-hydroxy-3-(((5′S)-3′-methyl-5′,8′-dihydro-6′H-spiro[cyclobutane-1,7′-quinolin]-5′-yl)amino)propyl)acetamide], 64.6 nM; as for `CC(=O)N[C@@H](Cc1cccc(C#N)c1)[C@H](O)CN[C@H]1CC(C)(C)Cc2ncc(C)cc21` [compound 543], 124 nM. Turning to `CC(=O)N[C@@H](Cc1cc(F)cc(F)c1)[C@H](O)CN[C@H]1CC2(CCC2)Oc2ccc(-c3ncco3)cc21` [compound 544], the IC50 is 631 nM.

As for `CC(=O)N[C@@H](Cc1ccccc1)[C@H](O)CN[C@H]1CC(C)(C)Oc2ncc(CC(C)(C)C)cc21` [compound 545], the IC50 amounted to 4.61 nM. In the case of `CC(=O)N[C@@H](Cc1cccc(F)c1)[C@H](O)CN[C@H]1CC(C)(C)Oc2ncc(CC(C)(C)C)cc21` [compound 546], the IC50 came to 1.67 nM. Consider `CC(=O)N[C@@H](Cc1ccc(F)cc1)[C@H](O)CN[C@H]1CC2(CCCC2)Oc2ncc(CC(C)(C)C)cc21` [compound 547], for which the IC50 worked out at 34.8 nM. Regarding `CC(=O)N[C@@H](Cc1cc(F)cc(F)c1)[C@H](O)CN[C@H]1CC2(CCCC2)Oc2ncc(CC(C)(C)C)cc21` [compound 548], the IC50 was found to be 2.83 nM. Turning to `CC(=O)N[C@@H](Cc1cccc(F)c1)[C@H](O)CN[C@H]1CC2(CCCC2)Oc2ncc(CC(C)(C)C)cc21` [compound 549], the IC50 is 6.93 nM.

Consider `CC(=O)N[C@@H](Cc1ccc(F)cc1)[C@H](O)CN[C@H]1CC2(CCC2)Oc2ncc([C@H](F)C(C)C)cc21` [compound 552, N-((1S,2R)-3-(((4′S)-6′-((1R)-1-fluoro-2-methylpropyl)-3′,4′-dihydrospiro[cyclobutane-1,2′-pyrano[2,3-b]pyridin]-4′-yl)amino)-1-((4-fluorophenyl)methyl)-2-hydroxypropyl)acetamide], for which the IC50 amounted to 1260 nM. As for `CC(=O)N[C@@H](Cc1ccc(F)cc1)[C@H](O)CN[C@H]1CC2(CCC2)Oc2ncc([C@@H](F)C(C)C)cc21` [compound 553], the IC50 came to 272 nM. Regarding `CC(=O)N[C@@H](Cc1cccc(F)c1)[C@H](O)CN[C@H]1CC2(CCC2)Oc2ncc([C@@H](F)C(C)C)cc21` [compound 555], the IC50 came to 1430 nM. Take `CC(=O)N[C@@H](Cc1ccc(F)cc1)[C@H](O)CN[C@H]1CC2(CCC2)Nc2ccc(CC(C)(C)C)cc21` [compound 559, N-((1S,2R)-3-(((4′S)-6′-(2,2-dimethylpropyl)-3′,4′-dihydro-1′H-spiro[cyclobutane-1,2′-quinolin]-4′-yl)amino)-1-((4-fluorophenyl)methyl)-2-hydroxypropyl)acetamide]: the IC50 was 105 nM. Consider `CC(=O)N[C@@H](Cc1cc(F)cc(F)c1)[C@H](O)CN[C@H]1CC2(CCC2)Nc2ccc(CC(C)(C)C)cc21` [compound 560, N-((1S,2R)-1-((3,5-difluorophenyl)methyl)-3-(((4′S)-6′-(2,2-dimethylpropyl)-3′,4′-dihydro-1′H-spiro[cyclobutane-1,2′-quinolin]-4′-yl)amino)-2-hydroxypropyl)acetamide], for which the IC50 worked out at 11.7 nM. Consider `CC(=O)N[C@@H](Cc1cccc(F)c1)[C@H](O)CN[C@H]1CC2(CCC2)Nc2ccc(CC(C)(C)C)cc21` [compound 561, N-((1S,2R)-3-(((4′S)-6′-(2,2-dimethylpropyl)-3′,4′-dihydro-1′H-spiro[cyclobutane-1,2′-quinolin]-4′-yl)amino)-1-((3-fluorophenyl)methyl)-2-hydroxypropyl)acetamide], for which the IC50 was 29.4 nM. Consider `CC(=O)N[C@@H](Cc1ccc(F)c(Br)c1)[C@H](O)CN[C@H]1CC2(CCC2)Nc2ccc(CC(C)(C)C)cc21` [compound 562, N-((1S,2R)-1-((3-bromo-4-fluorophenyl)methyl)-3-(((4′S)-6′-(2,2-dimethylpropyl)-3′,4′-dihydro-1′H-spiro[cyclobutane-1,2′-quinolin]-4′-yl)amino)-2-hydroxypropyl)acetamide], for which the IC50 was found to be 141 nM. With `CC(=O)N[C@@H](Cc1ccc(F)cc1)[C@H](O)CN[C@H]1CC2(CCCC2)C(=O)c2ccc(CC(C)(C)C)cc21` [compound 563, N-((1S,2R)-3-(((4′S)-6′-(2,2-dimethylpropyl)-1′-oxo-3′,4′-dihydro-1′H-spiro[cyclopentane-1,2′-naphthalen]-4′-yl)amino)-1-((4-fluorophenyl)methyl)-2-hydroxypropyl)acetamide], the IC50 was ≥ 10000 nM.

Still in this test, the particulars now being: cells stably expressing APP, 24 h incubation with compound, Aβ40 in supernatant by sandwich ELISA; read-out: IC50 values in the cell-based assay (inhibition or reduction of Aβ40).
Consider `CC(=O)N[C@@H](Cc1cc(F)cc(F)c1)[C@H](O)CN[C@H]1C[C@@]2(CCOC2)Oc2c(Br)cc(Cl)cc21` [Example 249], for which the IC50 was ≤ 5000 nM. `CCc1ccc2c(c1)[C@@H](NC[C@@H](O)[C@H](Cc1cccc(Br)c1)NC(=O)CCCCCCNC(=O)OCc1ccccc1)CC1(CCC1)O2` [Example 337]: the IC50 was ≤ 5000 nM.

In the case of `CC(=O)N[C@@H](Cc1ccccc1)[C@H](O)CN[C@H]1CC2(CCC2)Oc2ncc(C3CCCO3)cc21` (stereo partly drawn) [Example 384], the IC50 is ≤ 5000 nM.

The values are drawn from patent US7973047B2, “Beta-Secretase modulators and methods of use” (Amgen Inc., priority 2010, dated 2011).
